# Data taken from paper PMC6370799, “Flavones hydroxylated at 5, 7, 3′ and 4′ ameliorate skin fibrosis via inhibiting activin receptor-like kinase 5 kinase activity” (Cell Death & Disease, 2019).
# Biological target: T1, activin receptor-like kinase 5 (ALK5) (Homo sapiens, UniProt P36897)
# T1 construct: gene TGFBR1; GST-ALK5
# T1 sequence (P36897 34-503): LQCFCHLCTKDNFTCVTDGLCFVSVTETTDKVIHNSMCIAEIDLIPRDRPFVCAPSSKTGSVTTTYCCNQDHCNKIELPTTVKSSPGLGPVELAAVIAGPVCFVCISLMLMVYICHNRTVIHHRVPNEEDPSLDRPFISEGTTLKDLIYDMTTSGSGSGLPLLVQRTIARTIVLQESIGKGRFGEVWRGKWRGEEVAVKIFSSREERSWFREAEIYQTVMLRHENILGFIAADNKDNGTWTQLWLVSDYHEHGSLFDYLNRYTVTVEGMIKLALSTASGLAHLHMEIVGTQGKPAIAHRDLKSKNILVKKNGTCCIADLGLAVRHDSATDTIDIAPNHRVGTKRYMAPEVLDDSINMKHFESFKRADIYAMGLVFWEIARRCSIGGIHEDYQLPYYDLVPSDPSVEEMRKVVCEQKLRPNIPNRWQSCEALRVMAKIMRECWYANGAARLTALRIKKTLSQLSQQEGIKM
# Experiment: LanthaScreen Eu kinase binding assay (TR-FRET tracer displacement); also in vitro GST-Smad3 phosphorylation assay
row,Structure (SMILES),IC50 [nM]
1,O=c1cc(-c2ccc(O)c(O)c2)oc2cc(O)cc(O)c12 [luteolin],1060
2,O=c1c(O)c(-c2cc(O)c(O)c(O)c2)oc2cc(O)cc(O)c12 [myricetin],4080
3,O=c1c(O)c(-c2ccc(O)c(O)c2)oc2cc(O)cc(O)c12 [quercetin],1480
